# In US20240293367A1, “METHODS OF TREATING DISORDERS WITH A […]” (Cybin IRL Limited, priority 2023, published 2024):
# Tested on: participants with MDD
# Assay: MADRS total score, response, remission and relapse in MDD participants (Phase I/IIa study)
# Type: in vivo, human
# Description: Cohorts 1, 4, 5, and 6 of the study was comprised of participants with MDD. Cohorts 2, 3, and the relative BA cohort of the study were comprised of normal healthy volunteers (NHV). […] MDD participants had been on a stable dose of antidepressant medication for at least one month prior to screening with an inadequate response to that antidepressant medication as judged by the Investigator, and continued to receive their prescribed antidepressant throughout the course of the study.
# Cohorts 4 and 5. For Cohorts 4 and 5, 12 participants each (24 participants total) were randomized in a 3:1 ratio to receive 12 mg of psilocin-d10 or matched placebo in a single dosing session on Day 1. Following a 21-day interval, all participants received a dose of 12 mg psilocin-d10 on Day 22 (second dose for participants originally randomized to psilocin-d10, first dose for participants randomized to placebo), and were followed to Day 42.
# Cohort 6. For Cohort 6, 12 participants were randomized in a 3:1 ratio to receive 16 mg of psilocin-d10 or matched placebo in a single dosing session on Day 1. Following a 21-day interval, all participants received a dose of 16 mg psilocin-d10 on Day 22 (second dose for participants originally randomized to psilocin-d10, first dose for participants randomized to placebo), and were followed to Day 42. Given the availability of data and considering that the secondary endpoint was a change in baseline to Day 21 in MADRS, efficacy data presented herein considers the data cut off of Day 21 postdose. One participant had to be withdrawn from the study due to pregnancy.
# The primary efficacy endpoint defined in the statistical analysis plan (SAP) is the change from baseline to Day 21 of the total Montgomery-Åsberg Depression Rating Scale (MADRS) score compared to placebo, therefore efficacy data presented herein considers the data cut off of Day 21 postdose. Mean total score and change from baseline on Montgomery-Åsberg Depression Rating Scale (MADRS) on days 1, 10, 17, 22, 31, 38, and 42 are presented as secondary efficacy endpoints.
# The secondary objective of the study was to evaluate the efficacy of psilocin-d10 in treating symptoms of MDD as measured by the change from baseline to Day 21 of the MADRS total score in the Intent-to-Treat population, with data analyzed according to the treatment group each participant was randomized to receive. Data from participants in Cohorts 4, 5, and 6 randomized to placebo was pooled for analysis purposes (N=9). Data from participants in Cohorts 4, 5, and 6 randomized to 12 mg or 16 mg psilocin-d10 (N=27) was also pooled for analysis.
# Data from the study was also analyzed according to dosage level of psilocin-d10. Data from participants in Cohorts 4, 5, and 6 randomized to placebo was pooled for analysis purposes (N=9). Data from participants in Cohorts 4 and 5 (treated with 12 mg psilocin-d10) was also pooled for analysis (N=18).
# The rates of remission, response, and relapse were also evaluated within the study. […] Additionally, 20.8% (5 out of 24) of participants in the psilocin-do group (12 mg and 16 mg combined) were in remission (remitters) (defined as a MADRS score of ≤10) compared to 0% for placebo at Day 21. The same 5 participants who were in remission were also classified as responders. None of the participants relapsed at Day 21 compared to baseline.
# The MADRS is a 10-item scale with ratings based on a clinical interview which moves from broadly phrased questions about symptoms to more detailed ones allowing a precise rating of severity. A rating scale from 0 to 6 is employed and the rater must decide whether the rating lies on defined scale steps (0, 2, 4, 6) or between them (1, 3, 5). The MADRS can be used for any time interval between ratings, be it weekly or otherwise, and the time interval should be recorded. […]
# [1] = Day 21, 12 mg single dose, Cohorts 4 and 5
# [2] = Day 21, 16 mg single dose, Cohort 6
# [3] = Day 21, single dose, 12 and 16 mg pooled
smiles,measurement,setting,value
"[2H]C([2H])([2H])N(C([2H])([2H])[2H])C([2H])([2H])C([2H])([2H])c1c[nH]c2cccc(O)c12 [psilocin-d10, 3-(2-(bis(methyl-d3)amino)ethyl-1,1,2,2-d4)-1H-indol-4-ol]",mean reduction in baseline MADRS,"10 days post first dose, 12 mg and 16 mg pooled",55%
same,reduction in baseline MADRS,10 days post second dose,66%
same,"MADRS change from baseline, LS Mean (Std Err) for Day 42","ANOVA [2], Placebo/active group (one dose Day 22)",−16.48 (3.50)
same,"MADRS change from baseline, LS Mean (Std Err) for Day 42","ANOVA [2], two doses, 12 and 16 mg pooled",−21.04 (2.24)
same,"MADRS change from baseline, LS Mean (Std Err) for Day 42","ANOVA [3], within Placebo/active group",−16.54 (2.89)
same,"MADRS change from baseline, LS Mean","ANOVA at Day 21, 12 mg",−16.70
same,"MADRS change from baseline, LS Mean","ANOVA at Day 21, 16 mg",−15.61
same,"MADRS change from baseline, LS Mean","ANOVA at Day 42 (by dosage level), Placebo/active group (one dose Day 22)",−16.48
same,"MADRS change from baseline, LS Mean","ANOVA at Day 42, two 12 mg doses",−19.83
same,"MADRS change from baseline, LS Mean","ANOVA at Day 42, two 16 mg doses",−23.41
same,"MADRS change from baseline, LS Mean (Std Err) for Day 21","ANOVA, 12 and 16 mg pooled",−16.33 (1.30)
same,MADRS mean total score,Day 10 after single dose (baseline 32.2),17.7
same,participants in remission,"Day 21, 12 mg (3 out of 15)",20%
same,participants with response,"Day 21, 12 mg (8 out of 15)",53.3%
same,participants in remission (MADRS ≤10),"Day 21, 12 mg and 16 mg combined (5 out of 24)",20.8%
same,participants with response (≥50% reduction from baseline MADRS),"Day 21, 12 mg and 16 mg combined (12 out of 24)",50%
same,"MADRS total score, Change from Baseline, Mean",[1],−17.0
same,"MADRS total score, Change from Baseline, Median",[1],−17.0
same,"MADRS total score, Observed, Mean",[1],15.9
same,"MADRS total score, Observed, Median",[1],14.0
same,participants in remission,"Day 21, 16 mg (2 out of 9)",22.2%
same,participants with response,"Day 21, 16 mg (4 out of 9)",44.4%
same,"MADRS total score, Change from Baseline, Mean",[2],−14.9
same,"MADRS total score, Change from Baseline, Median",[2],−17.0
same,"MADRS total score, Observed, Mean",[2],16.6
same,"MADRS total score, Observed, Median",[2],18.0
same,Relapse - No,"Day 21, Cohort 4, 12 mg",7 (100.0) n (%)
same,Relapse - Yes,"Day 21, Cohort 4, 12 mg",0 (0.0) n (%)
same,Remission (MADRS ≤10) - Yes,"Day 21, Cohort 4, 12 mg",2 (28.6) n (%)
same,Remission - No,"Day 21, Cohort 4, 12 mg",5 (71.4) n (%)
same,Response (≥50% reduction from baseline MADRS) - Yes,"Day 21, Cohort 4, 12 mg",4 (57.1) n (%)
same,Response - No,"Day 21, Cohort 4, 12 mg",3 (42.9) n (%)
same,Relapse - No,"Day 21, Cohort 5, 12 mg",8 (100.0) n (%)
same,Relapse - Yes,"Day 21, Cohort 5, 12 mg",0 (0.0) n (%)
same,Remission (MADRS ≤10) - Yes,"Day 21, Cohort 5, 12 mg",1 (12.5) n (%)
same,Remission - No,"Day 21, Cohort 5, 12 mg",7 (87.5) n (%)
same,Response (≥50% reduction from baseline MADRS) - Yes,"Day 21, Cohort 5, 12 mg",4 (50.0) n (%)
same,Response - No,"Day 21, Cohort 5, 12 mg",4 (50.0) n (%)
same,Relapse - No,"Day 21, Cohort 6, 16 mg",9 (100.0) n (%)
same,Relapse - Yes,"Day 21, Cohort 6, 16 mg",0 (0.0) n (%)
same,Remission (MADRS ≤10) - Yes,"Day 21, Cohort 6, 16 mg",2 (22.2) n (%)
same,Remission - No,"Day 21, Cohort 6, 16 mg",7 (77.8) n (%)
same,Response (≥50% reduction from baseline MADRS) - Yes,"Day 21, Cohort 6, 16 mg",4 (44.4) n (%)
same,Response - No,"Day 21, Cohort 6, 16 mg",5 (55.6) n (%)
same,Remission (MADRS ≤10) - Yes,"Day 21, Cohorts 4, 5 and 6, pooled 12 mg and 16 mg",5 (20.8) n (%)
same,Relapse - No,"Day 21, Cohorts 4 and 5, 12 mg",15 (100.0) n (%)
same,Relapse - Yes,"Day 21, Cohorts 4 and 5, 12 mg",0 (0.0) n (%)
same,Remission (MADRS ≤10) - Yes,"Day 21, Cohorts 4 and 5, 12 mg",3 (20.0) n (%)
same,Remission - No,"Day 21, Cohorts 4 and 5, 12 mg",12 (80.0) n (%)
same,Response (≥50% reduction from baseline MADRS) - Yes,"Day 21, Cohorts 4 and 5, 12 mg",8 (53.3) n (%)
same,Response - No,"Day 21, Cohorts 4 and 5, 12 mg",7 (46.7) n (%)
same,Relapse - No,"Day 21, pooled 12 mg and 16 mg",24 (100.0) n (%)
same,Relapse - Yes,"Day 21, pooled 12 mg and 16 mg",0 (0.0) n (%)
same,Remission - No,"Day 21, pooled 12 mg and 16 mg",19 (79.2) n (%)
same,Response (≥50% reduction from baseline MADRS) - Yes,"Day 21, pooled 12 mg and 16 mg",12 (50.0) n (%)
same,Response - No,"Day 21, pooled 12 mg and 16 mg",12 (50.0) n (%)
same,"MADRS total score, Change from Baseline, Mean",[3],−16.2
same,"MADRS total score, Change from Baseline, Median",[3],−17.0
same,"MADRS total score, Observed, Mean",[3],16.1
same,"MADRS total score, Observed, Median",[3],16.5
same,"MADRS, Difference in LS Means, 12 mg compared to Cohort 6 (16 mg)","Day 21, 95% CI (−12.2, 10.1), P 0.8421",−1.09
same,"MADRS, Difference in LS Means, 12 mg compared to placebo","Day 21, 95% CI (−20.5, −7.7), P 0.0001",−14.11
same,"MADRS, Difference in LS Means, 16 mg compared to placebo","Day 21, 95% CI (−22.3, −3.7), P 0.0080",−12.99
same,mean decrease from baseline MADRS,Day 21 after single dose,50%
same,MADRS mean total score,Day 31 (10 days post second dose),6.7
same,Relapse - No,"Day 42, Cohort 4, two 12 mg doses",7 (100.0) n (%)
